# From patent US10703757B2, “Compounds and methods for CDK8 modulation and indications therefor” (Plexxikon Inc., priority 2016, dated 2020)
# What was measured:
# [1] = system: CDK8 (phosphorylation of STAT1 at serine 727 in A549 cells); experiment: Cell based Phospho-STAT1 assay (IFNγ-stimulated A549 cells, AlphaLISA); settings: Homo sapiens, A549, A549 cells, phospho-STAT1 after IFNγ stimulation
# How it was run: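 A549 cells given serial compound dilutions for 1 h at 37 °C, then stimulated with IFNγ at 10 ng/mL final for 30 min. Lysate STAT1 Ser727 phosphorylation measured by AlphaLISA; % inhibition vs stimulated/unstimulated DMSO controls, IC50 by nonlinear regression.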
# [2] = system: CDK8 (TCF/LEF luciferase reporter in HCT116 cells); experiment: Cell based TCF/LEF reporter assay (HCT116+TCF/LEF luciferase); settings: Homo sapiens, HCT-116, 24 h
# How it was run: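 HCT116 cells stably carrying a TCF/LEF-luciferase reporter (endogenous mutant β-catenin), seeded overnight, then exposed to serial compound dilutions for 24 h at 37 °C. Luminescence normalized to CellTiter-Fluor viability signal. % inhibition relative to DMSO and 10 uM CCT251545 controls, with IC50 from nonlinear regression.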
Compound,IC50 [1] [nM],IC50 [2] [nM]
"CS(=O)(=O)Nc1ccc(-c2cnn3ccnc(C4=CCC(C#N)CC4)c23)cc1 (stereo not shown) [Compound P-0045, N-(4-(4-(4-cyanocyclohex-1-en-1-yl)pyrazolo[1,5-a]pyrazin-3-yl)phenyl)methanesulfonamide]",100 to 1000,0.1 to 100
"N#CC1CCN(c2c(-c3ccc4cc(C(=O)O)ccc4c3)cnc3[nH]ccc23)CC1 [Compound P-0200, 6-(4-(4-cyanopiperidin-1-yl)-1H-pyrrolo[2,3-b]pyridin-5-yl)-2-naphthoic acid]",1000 to 10000,100 to 1000
"N#CC1CC=C(c2c(-c3ccc4c(c3)OCC(=O)N4)cnc3[nH]ccc23)CC1 (stereo not shown) [Compound P-0205, 4-(5-(3-oxo-3,4-dihydro-2H-benzo[b][1,4]oxazin-7-yl)-1H-pyrrolo[2,3-b]pyridin-4-yl)cyclohex-3-ene-1-carbonitrile]",100 to 1000,0.1 to 100
"O=C1NCCC12CCN(c1cccn3ncc(-c4ccc(OCCN5CCOCC5)cc4)c13)CC2 [Compound P-0135, 8-(3-(4-(2-morpholino-ethoxy)phenyl)pyrazolo[1,5-a]pyridin-4-yl)-2,8-diazaspiro[4.5]decan-1-one]",100 to 1000,100 to 1000
"COc1ccc2cc(-c3cnn4ccnc(C5=CCC(C#N)CC5)c34)ccc2n1 (stereo not shown) [Compound P-0147, 4-(3-(2-methoxyquinolin-6-yl)pyrazolo[1,5-a]pyrazin-4-yl)cyclohex-3-ene-1-carbonitrile]",0.1 to 100,0.1 to 100
"CCn1cc(-c2ccc(-c3cnc4[nH]ccc4c3N3CCC(C#N)CC3)cc2)cn1 [Compound P-0173, 1-(5-(4-(1-ethyl-1H-pyrazol-4-yl)phenyl)-1H-pyrrolo[2,3-b]pyridin-4-yl)piperidine-4-carbonitrile]",0.1 to 100,0.1 to 100
"CC(C)(C#Cc1cccn2ncc(-c3ccc(-c4cnn(CC(F)F)c4)cc3)c12)C(N)=O [Compound P-0467, 4-(3-(4-(1-(2,2-difluoroethyl)-1H-pyrazol-4-yl)phenyl)pyrazolo[1,5-a]pyridin-4-yl)-2,2-dimethylbut-3-ynamide]",0.1 to 100,0.1 to 100
"N#CC1CC=C(c2nccn3ncc(-c4ccc(F)cc4)c23)CC1 (stereo not shown) [Compound P-0089, 4-(3-(4-fluorophenyl)pyrazolo[1,5-a]pyrazin-4-yl)cyclohex-3-ene-1-carbonitrile]",0.1 to 100,100 to 1000
"N#CC1CCN(c2cccn3ncc(-c4ccc(OCC5CCCCO5)cc4)c23)CC1 (stereo not shown) [Compound P-0264, 1-(3-(4-((tetrahydro-2H-pyran-2-yl)methoxy)phenyl)pyrazolo[1,5-a]pyridin-4-yl)piperidine-4-carbonitrile]",0.1 to 100,0.1 to 100
"Cn1cc(C#Cc2cnc3cccc(N4CCC(C(N)=O)C4)n23)cn1 (stereo not shown) [Compound P-0241, 1-(3-((1-methyl-1H-pyrazol-4-yl)ethynyl)imidazo[1,2-a]pyridin-5-yl)pyrrolidine-3-carboxamide]",100 to 1000,100 to 1000
"N#CC1CC=C(c2cccn3ncc(-c4ccc5nccnc5c4)c23)CC1 (stereo not shown) [Compound P-0122, 4-(3-(quinoxalin-6-yl)pyrazolo[1,5-a]pyridin-4-yl)cyclohex-3-ene-1-carbonitrile]",0.1 to 100,0.1 to 100
"Cn1cc(-c2ccc(-c3cnc4[nH]ccc4c3N3CCC(C#N)CC3)cc2)cn1 [Compound P-0421, 1-(5-(4-(1-methyl-1H-pyrazol-4-yl)phenyl)-1H-pyrrolo[2,3-b]pyridin-4-yl)piperidine-4-carbonitrile]",0.1 to 100,0.1 to 100
"CC1(COc2ccc(-c3cnn4ccnc(C5=CCC(C#N)CC5)c34)cc2)COC1 (stereo not shown) [Compound P-0055, 4-(3-(4-((3-methyloxetan-3-yl)methoxy)phenyl)pyrazolo[1,5-a]pyrazin-4-yl)cyclohex-3-ene-1-carbonitrile]",0.1 to 100,0.1 to 100
"N#CC1CCN(c2cccn3ncc(-c4ccc(OCC(O)CN5CCOCC5)cc4)c23)CC1 (stereo not shown) [Compound P-0262, 1-(3-(4-(2-hydroxy-3-morpholino-propoxy)phenyl)pyrazolo[1,5-a]pyridin-4-yl)piperidine-4-carbonitrile]",0.1 to 100,0.1 to 100
"Cn1ccc(-c2ccc(-c3cnn4cccc(C#CC(C)(C)O)c34)cc2)n1 [Compound P-0226, 2-methyl-4-(3-(4-(1-methyl-1H-pyrazol-3-yl)phenyl)pyrazolo[1,5-a]pyridin-4-yl)but-3-yn-2-ol]",0.1 to 100,0.1 to 100
"Cc1ccc2cc(-c3cnc4[nH]ccc4c3C#CC(C)(C)C(N)=O)ccc2n1 [Compound P-0131, 2,2-dimethyl-4-(5-(2-methylquinolin-6-yl)-1H-pyrrolo[2,3-b]pyridin-4-yl)but-3-ynamide]",100 to 1000,1000 to 10000
"N#CC1CCN(c2c(-c3ccc4c(c3)NC(=O)C4)cnc3[nH]ccc23)CC1 [Compound P-0189, 1-(5-(2-oxoindolin-6-yl)-1H-pyrrolo[2,3-b]pyridin-4-yl)piperidine-4-carbonitrile]",0.1 to 100,0.1 to 100

# Next, values leading:
IC50 [1] [nM],IC50 [2] [nM],Compound
0.1 to 100,0.1 to 100,"Cn1ncc2cc(-c3cnc4[nH]ccc4c3C3=CCC(C#N)CC3)ccc21 (stereo not shown) [Compound P-0358, 4-(5-(1-methyl-1H-indazol-5-yl)-1H-pyrrolo[2,3-b]pyridin-4-yl)cyclohex-3-ene-1-carbonitrile]"
0.1 to 100,0.1 to 100,"N#CC1CC=C(c2nccn3ncc(-c4ccc(-c5cnn(CCF)c5)cc4)c23)CC1 (stereo not shown) [Compound P-0036, 4-(3-(4-(1-(2-fluoroethyl)-1H-pyrazol-4-yl)phenyl)pyrazolo[1,5-a]pyrazin-4-yl)cyclohex-3-ene-1-carbonitrile]"
0.1 to 100,100 to 1000,"NC(=O)C1CC=C(c2cccn3ncc(-c4ccc(-n5ccnn5)cc4)c23)CC1 (stereo not shown) [Compound P-0196, 4-(3-(4-(1H-1,2,3-triazol-1-yl)phenyl)pyrazolo[1,5-a]pyridin-4-yl)cyclohex-3-ene-1-carboxamide]"
0.1 to 100,0.1 to 100,"CC(C)(O)Cn1ncc2cc(-c3cnn4ccnc(C5CCC(C#N)CC5)c34)ccc21 (stereo not shown) [Compound P-0062, (1s,4s)-4-(3-(1-(2-hydroxy-2-methylpropyl)-1H-indazol-5-yl)pyrazolo[1,5-a]pyrazin-4-yl)cyclohexane-1-carbonitrile]"
0.1 to 100,0.1 to 100,"Cc1n[nH]c2cc(-c3cnn4ccnc(C5=CCC(C#N)CC5)c34)ccc12 (stereo not shown) [Compound P-0071, 4-(3-(3-methyl-1H-indazol-6-yl)pyrazolo[1,5-a]pyrazin-4-yl)cyclohex-3-ene-1-carbonitrile]"
0.1 to 100,0.1 to 100,"Cc1ccc2cc(-c3cnn4cccc(C5CCC(C#N)CC5)c34)ccc2n1 (stereo not shown) [Compound P-0194, 4-(3-(2-methylquinolin-6-yl)pyrazolo[1,5-a]pyridin-4-yl)cyclohexane-1-carbonitrile]"
0.1 to 100,0.1 to 100,"COc1ccc2cc(-c3cnn4ccnc(C5=CCC(C(N)=O)CC5)c34)ccc2n1 (stereo not shown) [Compound P-0154, 4-(3-(2-methoxyquinolin-6-yl)pyrazolo[1,5-a]pyrazin-4-yl)cyclohex-3-ene-1-carboxamide]"
0.1 to 100,0.1 to 100,"COc1ccc2cc(-c3cnn4cccc(C5CCC(C#N)CC5)c34)ccc2n1 (stereo not shown) [Compound P-0195, 4-(3-(2-methoxyquinolin-6-yl)pyrazolo[1,5-a]pyridin-4-yl)cyclohexane-1-carbonitrile]"
0.1 to 100,0.1 to 100,"N#CCn1cc(-c2ccc(-c3cnn4ccnc(C5CCC(C#N)CC5)c34)cc2)cn1 (stereo not shown) [Compound P-0014, (1s,4s)-4-(3-(4-(1-(cyanomethyl)-1H-pyrazol-4-yl)phenyl)pyrazolo[1,5-a]pyrazin-4-yl)cyclohexane-1-carbonitrile]"
0.1 to 100,0.1 to 100,"O=C1NCCC12CCN(c1cccn3ncc(-c4ccc(OCCOC5CCOCC5)cc4)c13)CC2 [Compound P-0145, 8-(3-(4-(2-((tetrahydro-2H-pyran-4-yl)oxy)ethoxy)phenyl)pyrazolo[1,5-a]pyridin-4-yl)-2,8-diazaspiro[4.5]decan-1-one]"
0.1 to 100,0.1 to 100,"CC(C)(C#Cc1cccn2ncc(-c3ccc(-c4cnn(CCN5CCCC5)c4)cc3)c12)C(N)=O [Compound P-0465, 2,2-dimethyl-4-(3-(4-(1-(2-(pyrrolidin-1-yl)ethyl)-1H-pyrazol-4-yl)phenyl)pyrazolo[1,5-a]pyridin-4-yl)but-3-ynamide]"
0.1 to 100,0.1 to 100,"Cn1cc(-c2ccc(-c3cnn4ccnc(C5CCC(C(N)=O)CC5)c34)cc2)cn1 (stereo not shown) [Compound P-0247, 4-(3-(4-(1-methyl-1H-pyrazol-4-yl)phenyl)pyrazolo[1,5-a]pyrazin-4-yl)cyclohexane-1-carboxamide]"
0.1 to 100,0.1 to 100,"CC(C)(C#Cc1cccn2ncc(-c3ccc(-c4cnn(CC5(C#N)CC5)c4)cc3)c12)C(N)=O [Compound P-0052, 4-(3-(4-(1-((1-cyanocyclopropyl)methyl)-1H-pyrazol-4-yl)phenyl)pyrazolo[1,5-a]pyridin-4-yl)-2,2-dimethylbut-3-ynamide]"
0.1 to 100,0.1 to 100,"Cn1cc(-c2ccc(-c3cnc4cccc(C5=CCC(C#N)CC5)n34)cc2)cn1 (stereo not shown) [Compound P-0445, 4-(3-(4-(1-methyl-1H-pyrazol-4-yl)phenyl)imidazo[1,2-a]pyridin-5-yl)cyclohex-3-ene-1-carbonitrile]"
0.1 to 100,100 to 1000,"N#CC1CC=C(c2cccn3ncc(-c4ccc5cncnc5c4)c23)CC1 (stereo not shown) [Compound P-0119, 4-(3-(quinazolin-7-yl)pyrazolo[1,5-a]pyridin-4-yl)cyclohex-3-ene-1-carbonitrile]"
